According to PubChem BioAssay AID256 (DTP/NCI, 2004):
Toxic doses and inconclusive results are not listed. How the source made its calls: active means survival T/C of 150% or more; inactive means T/C below 125% in these data.

System: CD2F1 mice, L1210 leukemia ip, survival T/C
Test: NCI In Vivo Anticancer Drug Screen. Data for tumor model L1210 Leukemia (intraperitoneal) in CD2F1 (CDF1) mice
Settings: higher = longer survival
Outline: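 Mice carrying a transplanted tumor received test compound or vehicle alone. The value is the measurement in the treated group divided by that in the vehicle-treated control group.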

[1] = endpoint: mean survival time, dose: 100.0 mg/kg/injection, schedule: Q01DX001 (ip), vehicle: saline
[2] = endpoint: mean survival time, dose: 200.0 mg/kg/injection, schedule: Q01DX001 (ip), vehicle: saline
[3] = endpoint: mean survival time, dose: 400.0 mg/kg/injection, schedule: Q01DX001 (ip), vehicle: saline
[4] = endpoint: mean survival time, dose: 100.0 mg/kg/injection, schedule: Q04DX003 (ip), vehicle: saline with Tween-80
[5] = endpoint: mean survival time, dose: 200.0 mg/kg/injection, schedule: Q04DX003 (ip), vehicle: saline with Tween-80
[6] = endpoint: mean survival time, dose: 400.0 mg/kg/injection, schedule: Q04DX003 (ip), vehicle: saline with Tween-80
[7] = endpoint: mean survival time, dose: 50.0 mg/kg/injection, schedule: Q01DX009 (ip), vehicle: saline with Tween-80
[8] = endpoint: mean survival time, dose: 100.0 mg/kg/injection, schedule: Q01DX009 (ip), vehicle: saline with Tween-80
[9] = endpoint: mean survival time, dose: 200.0 mg/kg/injection, schedule: Q01DX009 (ip), vehicle: saline with Tween-80
[10] = endpoint: mean survival time, dose: 400.0 mg/kg/injection, schedule: Q01DX009 (ip), vehicle: saline with Tween-80

Measured: T/C

CCOC(=O)c1cnc2c(cnn2CC)c1N1CCN(CCO)CC1
inactive: endpoint: mean survival time, dose: 100.0 mg/kg/injection, schedule: Q04DX003 (ip), vehicle: Klucel (hydroxypropylcellulose) (HPC) 101 % of control

CCON(C(C)=O)c1cccc([N+](=O)[O-])c1
inactive: [1] 97 % of control | [2] 100 % of control | [3] 97 % of control

CCCCOC(=O)/C=C(\CC(=O)OCCCC)C(=O)OCCCC
inactive: endpoint: mean survival time, dose: 100.0 mg/kg/injection, schedule: Q01DX001 (ip), vehicle: saline with Tween-80 97 % of control | endpoint: mean survival time, dose: 200.0 mg/kg/injection, schedule: Q01DX001 (ip), vehicle: saline with Tween-80 97 % of control | endpoint: mean survival time, dose: 400.0 mg/kg/injection, schedule: Q01DX001 (ip), vehicle: saline with Tween-80 103 % of control

N#CN=[N+]([O-])c1ccc(C(=O)O)cc1
inactive: endpoint: mean survival time, dose: 1.87 mg/kg/injection, schedule: Q01DX009 (ip), vehicle: Klucel (hydroxypropylcellulose) (HPC) 106 % of control | endpoint: mean survival time, dose: 3.75 mg/kg/injection, schedule: Q01DX009 (ip), vehicle: Klucel (hydroxypropylcellulose) (HPC) 95 % of control | endpoint: mean survival time, dose: 7.5 mg/kg/injection, schedule: Q01DX009 (ip), vehicle: Klucel (hydroxypropylcellulose) (HPC) 95 % of control | endpoint: mean survival time, dose: 15.0 mg/kg/injection, schedule: Q01DX009 (ip), vehicle: Klucel (hydroxypropylcellulose) (HPC) 96 % of control | endpoint: mean survival time, dose: 30.0 mg/kg/injection, schedule: Q01DX009 (ip), vehicle: Klucel (hydroxypropylcellulose) (HPC) 98 % of control | endpoint: mean survival time, dose: 60.0 mg/kg/injection, schedule: Q01DX009 (ip), vehicle: Klucel (hydroxypropylcellulose) (HPC) 106 % of control | endpoint: median survival time, dose: 1.87 mg/kg/injection, schedule: Q01DX009 (ip), vehicle: Klucel (hydroxypropylcellulose) (HPC) 101 % of control | endpoint: median survival time, dose: 3.75 mg/kg/injection, schedule: Q01DX009 (ip), vehicle: Klucel (hydroxypropylcellulose) (HPC) 95 % of control | endpoint: median survival time, dose: 7.5 mg/kg/injection, schedule: Q01DX009 (ip), vehicle: Klucel (hydroxypropylcellulose) (HPC) 95 % of control | endpoint: median survival time, dose: 15.0 mg/kg/injection, schedule: Q01DX009 (ip), vehicle: Klucel (hydroxypropylcellulose) (HPC) 109 % of control | endpoint: median survival time, dose: 30.0 mg/kg/injection, schedule: Q01DX009 (ip), vehicle: Klucel (hydroxypropylcellulose) (HPC) 93 % of control

CC(C)OC(=O)Nc1ccncc1
inactive: endpoint: mean survival time, dose: 25.0 mg/kg/injection, schedule: Q04DX002 (ip), vehicle: saline with Tween-80 104 % of control

Cc1c(N)nc(C(CC(N)=O)NCC(N)C(N)=O)nc1C(=O)NC(C(=O)NC(C)C(O)C(C)C(=O)NC(C(=O)NCCc1nc(-c2nc(C(=O)NCCCNCCCc3ccccn3)cs2)cs1)C(C)O)C(OC1OC(CO)C(O)C(O)C1OC1OC(CO)C(O)C(OC(N)=O)C1O)c1cnc[nH]1 (centres undefined)
inactive: endpoint: mean survival time, dose: 0.2 mg/kg/injection, schedule: Q01DX009 (ip), vehicle: water 101 % of control | endpoint: mean survival time, dose: 0.4 mg/kg/injection, schedule: Q01DX009 (ip), vehicle: water 107 % of control | endpoint: mean survival time, dose: 0.8 mg/kg/injection, schedule: Q01DX009 (ip), vehicle: water 98 % of control | endpoint: mean survival time, dose: 1.6 mg/kg/injection, schedule: Q01DX009 (ip), vehicle: water 104 % of control | endpoint: mean survival time, dose: 3.2 mg/kg/injection, schedule: Q01DX009 (ip), vehicle: water 104 % of control | endpoint: mean survival time, dose: 6.25 mg/kg/injection, schedule: Q01DX009 (ip), vehicle: saline 111 % of control | endpoint: mean survival time, dose: 6.4 mg/kg/injection, schedule: Q01DX009 (ip), vehicle: water 107 % of control | endpoint: mean survival time, dose: 12.5 mg/kg/injection, schedule: Q01DX009 (ip), vehicle: saline 103 % of control | endpoint: mean survival time, dose: 25.0 mg/kg/injection, schedule: Q01DX009 (ip), vehicle: saline 108 % of control | endpoint: mean survival time, dose: 50.0 mg/kg/injection, schedule: Q01DX009 (ip), vehicle: saline 105 % of control

Nc1ccc2[nH]c(=S)sc2c1
inactive: [4] 94 % of control | [5] 92 % of control | [6] 90 % of control

CCOC1(C)OC2OC(COC(c3ccccc3)(c3ccccc3)c3ccccc3)C(O)C(O)C2O1 (centres undefined)
inactive: endpoint: mean survival time, dose: 12.5 mg/kg/injection, schedule: Q01DX009 (ip), vehicle: other 97 % of control | endpoint: mean survival time, dose: 25.0 mg/kg/injection, schedule: Q01DX009 (ip), vehicle: other 103 % of control | endpoint: mean survival time, dose: 50.0 mg/kg/injection, schedule: Q01DX009 (ip), vehicle: other 101 % of control | endpoint: mean survival time, dose: 100.0 mg/kg/injection, schedule: Q01DX009 (ip), vehicle: other 98 % of control | endpoint: mean survival time, dose: 200.0 mg/kg/injection, schedule: Q01DX009 (ip), vehicle: other 101 % of control

C[n+]1ccccc1/C=C/c1cccc([N+](=O)[O-])c1
inactive: endpoint: mean survival time, dose: 5.0 mg/kg/injection, schedule: Q01DX009 (ip), vehicle: saline with Tween-80 100 % of control | endpoint: mean survival time, dose: 10.0 mg/kg/injection, schedule: Q01DX009 (ip), vehicle: saline with Tween-80 105 % of control | endpoint: mean survival time, dose: 20.0 mg/kg/injection, schedule: Q01DX009 (ip), vehicle: saline with Tween-80 107 % of control

O=C(CNC(=O)Nc1cccc([N+](=O)[O-])c1)N/N=C/c1cc(Br)ccc1O
inactive: [7] 92 % of control | [8] 88 % of control | [9] 88 % of control

CC(O)CC(C)(C)S(=O)(=O)Cc1ccccc1 (centres undefined)
inactive: endpoint: mean survival time, dose: 100.0 mg/kg/injection, schedule: Q01DX001 (ip), vehicle: Klucel (hydroxypropylcellulose) (HPC) 101 % of control | endpoint: mean survival time, dose: 200.0 mg/kg/injection, schedule: Q01DX001 (ip), vehicle: Klucel (hydroxypropylcellulose) (HPC) 86 % of control | endpoint: mean survival time, dose: 400.0 mg/kg/injection, schedule: Q01DX001 (ip), vehicle: Klucel (hydroxypropylcellulose) (HPC) 93 % of control

NCCS/C=C/C(=O)O
inactive: endpoint: mean survival time, dose: 100.0 mg/kg/injection, schedule: Q04DX003 (ip), vehicle: saline 97 % of control | endpoint: mean survival time, dose: 200.0 mg/kg/injection, schedule: Q04DX003 (ip), vehicle: saline 109 % of control | endpoint: mean survival time, dose: 400.0 mg/kg/injection, schedule: Q04DX003 (ip), vehicle: saline 101 % of control

CC(=O)NC(=O)NC(Cc1ccccc1)c1ccccc1 (centres undefined)
inactive: [8] 98 % of control | [4] 104 % of control | [9] 92 % of control | [5] 96 % of control | [10] 95 % of control | [6] 108 % of control

[Co].[O-][Cl+3]([O-])([O-])O.c1ccc([PH+](CC[PH+](c2ccccc2)c2ccccc2)c2ccccc2)cc1.c1ccc([PH+](CC[PH+](c2ccccc2)c2ccccc2)c2ccccc2)cc1
inactive: endpoint: mean survival time, dose: 6.25 mg/kg/injection, schedule: Q04DX003 (ip), vehicle: saline with Tween-80 94 % of control | endpoint: mean survival time, dose: 12.5 mg/kg/injection, schedule: Q04DX003 (ip), vehicle: saline with Tween-80 98 % of control | endpoint: mean survival time, dose: 25.0 mg/kg/injection, schedule: Q04DX003 (ip), vehicle: saline with Tween-80 110 % of control | [5] 91 % of control

OC(CC(O)(C(F)(F)F)C(F)(F)F)c1cccc(C(F)(F)F)c1 (centres undefined)
inactive: endpoint: mean survival time, dose: 132.0 mg/kg/injection, schedule: Q04DX003 (ip), vehicle: other 98 % of control | endpoint: mean survival time, dose: 200.0 mg/kg/injection, schedule: Q04DX003 (ip), vehicle: other 94 % of control | endpoint: mean survival time, dose: 300.0 mg/kg/injection, schedule: Q04DX003 (ip), vehicle: other 93 % of control

Cc1ccc(S(=O)(=O)OC2CCC3C4CCC5=CC(=O)CCC5(C)C4CCC23C)cc1 (centres undefined)
inactive: endpoint: mean survival time, dose: 75.0 mg/kg/injection, schedule: Q04DX003 (sc), vehicle: steriod suspending solution 98 % of control | endpoint: mean survival time, dose: 150.0 mg/kg/injection, schedule: Q04DX003 (sc), vehicle: steriod suspending solution 98 % of control | endpoint: mean survival time, dose: 300.0 mg/kg/injection, schedule: Q04DX003 (sc), vehicle: steriod suspending solution 98 % of control

O=[N+]([O-])c1ccc2c(c1)sc1cc([N+](=O)[O-])c(Br)cc12
inactive: endpoint: mean survival time, dose: 100.0 mg/kg/injection, schedule: Q04DX002 (ip), vehicle: saline with Tween-80 97 % of control | endpoint: mean survival time, dose: 200.0 mg/kg/injection, schedule: Q04DX002 (ip), vehicle: saline with Tween-80 94 % of control | endpoint: mean survival time, dose: 400.0 mg/kg/injection, schedule: Q04DX002 (ip), vehicle: saline with Tween-80 112 % of control

OCC(O)C1OC(OCc2ccccc2)C(O)C(O)C1O (centres undefined)
inactive: [1] 101 % of control | [2] 98 % of control | [3] 98 % of control

Clc1ccccc1CCCBr
inactive: [8] 96 % of control | [4] 92 % of control | [9] 104 % of control | [5] 97 % of control | [10] 106 % of control | [6] 88 % of control

COC(=O)c1ccncc1
inactive: endpoint: mean survival time, dose: 100.0 mg/kg/injection, schedule: Q01DX009 (ip), vehicle: saline 102 % of control | endpoint: mean survival time, dose: 200.0 mg/kg/injection, schedule: Q01DX009 (ip), vehicle: saline 108 % of control | endpoint: mean survival time, dose: 400.0 mg/kg/injection, schedule: Q01DX009 (ip), vehicle: saline 100 % of control

COc1ccc(C(=O)NN)cc1
inactive: endpoint: mean survival time, dose: 25.0 mg/kg/injection, schedule: Q01DX009 (ip), vehicle: saline with Tween-80 115 % of control | [7] 110 % of control | [8] 109 % of control | [4] 101 % of control
